Literature values in patent publication US8471030B2, “Purification of montelukast using simulated moving bed” (Orochem Technologies Inc., priority 2010, dated 2013).

**Q.** With `CC(C)(O)c1ccccc1CC[C@@H](SCC1(CC(=O)O)CC1)c1cccc(/C=C/c2ccc3ccc(Cl)cc3n2)c1` [Montelukast] as the molecule, how does the “stability in acidic solutions” value (acidic solutions) read?
**A.** degrade rapidly

**Q.** What about the “stability in solution when exposed to light” value (in solution, exposed to light, forms the Montelukast-cis isomer) of the same molecule?
**A.** unstable when exposed to light
